The EC50 is the concentration giving half of the maximal effect.

These results are taken from ChEMBL document CHEMBL4673326, “Ligand-based optimization and biological evaluation of N-(2,2,2-trichloro-1-(3-phenylthioureido)ethyl)acetamide derivatives as potent intrinsically disordered protein c-Myc inhibitors” (Bioorg Med Chem Lett, 2021).

Experiment [1] has as its system HL-60. Nature of the experiment: Antiproliferative activity against human HL-60 cells assessed as inhibition of cell proliferation incubated for 72 hrs. Format: functional, cell-based. To be noted: HL-60, 72 h.
In experiment [2] the test system is Daudi. Nature of the experiment: Antiproliferative activity against human Daudi assessed as reduction in cell viability measured after 2 hrs. The format is functional, cell-based.
Experiment [3] has as its system ST486. As to the kind of experiment: Antiproliferative activity against human ST486 assessed as reduction in cell viability measured after 2 hrs. The format is functional, cell-based. As to conditions: ST486, 2 h.
Experiment [4] can be described thus: Antiproliferative activity against human Mutu-1 assessed as reduction in cell viability measured after 2 hrs. Format: functional. As to conditions: Mutu-1, 2 h.
Experiment [5] has as its target c-Myc/c-Max (Homo sapiens) (UniProt P01106+P61244). As to the kind of experiment: (§1) Inhibition of Nanoluc-tagged c-Myc/Halo-tagged MAX (unknown origin) interaction expressed in HEK293T cells assessed as degradation measured after 4 to 6 hrs by NanoBRET assay. As to conditions: time 4-6 hrs. Format: cell-based. Background: BRET reads energy transfer from a luciferase to a nearby fluorophore.

Experiment [6] deals with c-Myc/c-Max (Homo sapiens, UniProt P01106). Described as §1. The format is cell-based.
In experiment [7] the target is Myc proto-oncogene protein (Homo sapiens) (UniProt P01106). As to the kind of experiment: Induction of c-Myc degradation in human HL-60 cells assesses as decrease in c-Myc protein level measured after 24 hrs by Western blot analysis. As to conditions: dose 3.125-25 µM. Format: cell-based. A general note: A western blot detects proteins with antibodies after separation by electrophoresis.

For experiment [8], the system named is HL-60. As to the kind of experiment: Cell cycle arrest in human HL-60 cells assessed as accumulation at S-phase at 3.125 to 6.25 uM measured after 24 hrs by propidium iodide staining based flow cytometry. The format is functional. As to conditions: dose 3.125-6.25 µM.
Experiment [9] concerns HL-60. Nature of the experiment: Induction of apoptosis in human HL-60 cells at 1 to 20 uM measured after 24 hrs by FITC-Annexin-v/propidium iodide staining based flow cytometry. The format is functional, cell-based. As to conditions: dose 1-20 µM.
Experiment [10] can be described thus: Antiproliferative activity against rat TGR-1 harboring c-Myc assessed as reduction in cell viability measured on day 3 by MTT assay. The format is functional. To be noted: TGR1, 72 h.

SMILES strings stand for the structures. Calls of active or inactive are those of the source. The rule behind the calls is not given here. Where only a bound is given, the exact number is not on record here.

Chain of c-Myc/c-Max (P01106 whole entry): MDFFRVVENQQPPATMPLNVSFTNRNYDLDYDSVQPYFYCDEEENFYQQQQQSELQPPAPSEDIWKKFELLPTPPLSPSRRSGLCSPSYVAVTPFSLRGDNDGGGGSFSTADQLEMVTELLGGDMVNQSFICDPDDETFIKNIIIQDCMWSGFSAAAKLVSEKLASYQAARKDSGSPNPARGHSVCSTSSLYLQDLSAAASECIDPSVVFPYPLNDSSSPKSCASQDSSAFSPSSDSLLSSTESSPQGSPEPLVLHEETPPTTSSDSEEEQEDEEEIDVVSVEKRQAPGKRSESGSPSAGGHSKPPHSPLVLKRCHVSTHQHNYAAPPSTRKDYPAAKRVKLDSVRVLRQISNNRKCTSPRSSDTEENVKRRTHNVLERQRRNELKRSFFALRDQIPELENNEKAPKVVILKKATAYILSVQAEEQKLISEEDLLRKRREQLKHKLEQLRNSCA
Chain of c-Myc/c-Max (P61244 whole entry, further chain): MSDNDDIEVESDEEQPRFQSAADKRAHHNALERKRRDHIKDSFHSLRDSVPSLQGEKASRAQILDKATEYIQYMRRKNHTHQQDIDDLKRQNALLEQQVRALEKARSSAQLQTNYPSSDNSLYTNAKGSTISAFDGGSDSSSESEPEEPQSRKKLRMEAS
Chain of Myc proto-oncogene protein (Homo sapiens) (P01106 whole entry): as the sequence (P01106 whole entry) above
Chain of c-Myc/c-Max (Homo sapiens) (P01106 whole entry): as above
Chain of c-Myc/c-Max (Homo sapiens) (P61244 2-160 partner limits assumed): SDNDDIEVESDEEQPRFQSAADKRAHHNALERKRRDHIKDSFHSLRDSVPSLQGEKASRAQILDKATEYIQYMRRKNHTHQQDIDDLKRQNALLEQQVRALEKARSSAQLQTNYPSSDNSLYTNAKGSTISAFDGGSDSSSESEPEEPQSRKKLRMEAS

Take `Cc1cccc(NC(=S)NC(NC(=O)CF)C(Cl)(Cl)Cl)c1` (stereo not drawn): the EC50 in experiment [1] was over 100 µM. For the compound `O=C(CF)NC(NC(=S)Nc1ccc(Cl)cc1)C(Cl)(Cl)Cl` (stereo not drawn), the EC50 in [1] was found to be 24.8 µM.

On to `CC(=O)Nc1ccc(NC(=S)NC(NC(=O)c2ccccc2C)C(Cl)(Cl)Cl)cc1` (stereo not drawn), for which the EC50 in experiment [1] was over 50 µM. On the same count and under the same terms, for `CCOC(=O)NC(NC(=S)Nc1ccc(C)cc1)C(Cl)(Cl)Cl` (stereo not drawn) the value was over 50 µM; for `O=C(NC(NC(=S)Nc1ccccc1)C(Cl)(Cl)Cl)OCc1ccccc1` (stereo not drawn), 16.7 µM. For the compound `Cc1ccc(NC(=S)NC(NC(=O)CC(C)C)C(Cl)(Cl)Cl)cc1` (stereo not drawn), the EC50 in experiment [1] turned out to be 33.7 µM.

Regarding `O=C(NC(NC(=S)Nc1ccc(Cl)cc1)C(Cl)(Cl)Cl)OCc1ccccc1` (stereo not drawn), the EC50 in [1] worked out at 6.1 µM. For the compound `O=C(NC(NC(=S)Nc1ccc(Cl)cc1)C(Cl)(Cl)Cl)c1ccccc1Cl` (stereo not drawn), the EC50 in experiment [1] is 5.9 µM. On the same count and under the same terms, the value for `O=C(NC(NC(=S)Nc1cccc(Cl)c1)C(Cl)(Cl)Cl)OCc1ccccc1` (stereo not drawn) was 8.3 µM; that for `COC(=O)c1ccc(NC(=S)NC(NC(=O)c2ccccc2C)C(Cl)(Cl)Cl)cc1` (stereo not drawn) was 14.3 µM; that for `Cc1ccc(C(=O)NC(NC(=S)Nc2cc(C(F)(F)F)ccc2Cl)C(Cl)(Cl)Cl)cc1` (stereo not drawn) was 8.7 µM.

For `Cc1cccc(NC(=S)NC(NC(=O)Cc2ccccc2)C(Cl)(Cl)Cl)c1` (stereo not drawn), the EC50 in experiment [1] was over 100 µM. Turning to `O=C(NC(NC(=S)Nc1ccc(Cl)cc1)C(Cl)(Cl)Cl)c1ccccc1` (stereo not drawn), the EC50 in experiment [1] amounted to 5 µM. Same read-out and setting: for `Cc1ccc(NC(=S)NC(NC(=O)OCc2ccccc2)C(Cl)(Cl)Cl)cc1` (stereo not drawn) the value was 24.9 µM; for `O=C(NC(NC(=S)Nc1cccc2ccccc12)C(Cl)(Cl)Cl)OCc1ccccc1` (stereo not drawn), 6.9 µM.

For the compound `Cc1ccccc1C(=O)NC(NC(=S)Nc1ccccc1I)C(Cl)(Cl)Cl` (stereo not drawn), the EC50 in experiment [1] worked out at 13.8 µM.

Turning to `CCOC(=O)NC(NC(=S)Nc1c(Cl)cc(Cl)cc1Cl)C(Cl)(Cl)Cl` (stereo not drawn), the EC50 in experiment [1] was 42.8 µM. As to `Cc1ccc(NC(S)=NC(NC(=O)N(C)C)C(Cl)(Cl)Cl)cc1` (stereo not drawn), the concentration for a half-maximal effect (EC50) in experiment [1] is over 50 µM. As for `Cc1cccc(NC(=S)NC(NC(=O)c2ccccc2C)C(Cl)(Cl)Cl)c1` (stereo not drawn), the EC50 in experiment [1] turned out to be 22.9 µM. Still for that read-out and setting: for `CCCCCC(=O)NC(NC(=S)Nc1ccc(C)cc1)C(Cl)(Cl)Cl` (stereo not drawn) the value was over 50 µM. As for `CC(C)C(=O)NC(NC(=S)Nc1ccc(Cl)cc1)C(Cl)(Cl)Cl` (stereo not drawn), the EC50 in [1] is over 100 µM. `O=C(NC(NC(=S)Nc1ccc(Cl)cc1Cl)C(Cl)(Cl)Cl)OCc1ccccc1` (stereo not drawn): in experiment [1], the EC50 came to 10.6 µM.

In the case of `COc1ccccc1NC(=S)NC(NC=O)C(Cl)(Cl)Cl` (stereo not drawn), the EC50 in experiment [1] was over 100 µM. For the compound `CCOc1ccc2nc3cc(/N=N/c4ccc(N)nc4N)ccc3c(N)c2c1`, the EC50 in experiment [2], in [3] and in experiment [4] was 0.5 µM each time. In the case of `Cc1ccc(N=C(S)NC(NC(=O)c2ccccc2)C(Cl)(Cl)Cl)c(C)c1` (stereo not drawn), the EC50 in experiment [1] amounted to 8.1 µM.

Regarding `O=C(NC(NC(=S)Nc1ccc(F)cc1)C(Cl)(Cl)Cl)OCc1ccccc1` (stereo not drawn), the EC50 in experiment [1] is 11.7 µM. Same read-out and setting: for `O=C(Cc1ccccc1)NC(NC(=S)Nc1ccc(Cl)c(Cl)c1)C(Cl)(Cl)Cl` (stereo not drawn) the value was 32.5 µM; for `Cc1ccccc1C(=O)NC(NC(=S)Nc1ccc(Cl)c(Cl)c1)C(Cl)(Cl)Cl` (stereo not drawn), 4.5 µM. For the compound `O=C(NCNC(=S)Nc1ccc(Cl)cc1)c1ccccc1`, the EC50 in [1] is over 50 µM.

As for `COc1ccc(NC(=S)NC(NC(=O)OCc2ccccc2)C(Cl)(Cl)Cl)cc1` (stereo not drawn), the EC50 in experiment [1] was over 50 µM. Same read-out and setting: for `Cc1ccccc1C(=O)NC(NC(=S)Nc1ccccc1)C(Cl)(Cl)Cl` (stereo not drawn) the value was 10.8 µM; for `Cc1cccc(NC(=S)NC(NC(=O)c2ccccc2)C(Cl)(Cl)Cl)c1` (stereo not drawn), 10.6 µM; for `CCCCCCCCC(=O)NC(NC(=S)Nc1ccccc1C)C(Cl)(Cl)Cl` (stereo not drawn), over 100 µM. On the same count and under the same terms, the value for `NS(=O)(=O)c1ccc(NC(=S)NC(NC(=O)c2ccccc2)C(Cl)(Cl)Cl)cc1` (stereo not drawn) was over 50 µM; that for `COC(=O)c1ccc(NC(=S)NC(NC(=O)OCc2ccccc2)C(Cl)(Cl)Cl)cc1` (stereo not drawn) was 10.2 µM.

As for `Cc1ccc(NC(=S)NC(NC(=O)c2ccc(Br)cc2)C(Cl)(Cl)Cl)cc1` (stereo not drawn), the EC50 in [1] stood at 17.2 µM. As for `CCOC(=O)NC(NC(=S)Nc1ccc(I)cc1)C(Cl)(Cl)Cl` (stereo not drawn), the EC50 in experiment [1] turned out to be 9.9 µM.

For `O=C(NC(NC(=S)Nc1ccc(I)cc1)C(Cl)(Cl)Cl)c1cccc(I)c1` (stereo not drawn), the inhibition entry in experiment [5] was “Dose-dependent effect”. Further, the EC50 is 29.1 µM in [6] and 3.3 µM in [1]. The Activity result in experiment [7] is “Dose-dependent effect”. For the same compound, the result in experiment [8] and in experiment [9] was Active. Take `O=C(NC(NC(=S)Nc1ccc(Cl)c(Cl)c1)C(Cl)(Cl)Cl)OCc1ccccc1` (stereo not drawn): the EC50 in experiment [1] was 8.2 µM. `O=C(NC(NC(=S)Nc1ccc(Br)cc1)C(Cl)(Cl)Cl)OCc1ccccc1` (stereo not drawn): in experiment [1], the EC50 worked out at 6.1 µM. The same measure, in the same setting: the value for `Cc1ccc(NC(=S)NC(NC(=O)c2ccccc2)C(Cl)(Cl)Cl)cc1` (stereo not drawn) was 4.2 µM; that for `COc1ccc(NC(=S)NC(NC(=O)Cc2ccccc2)C(Cl)(Cl)Cl)cc1` (stereo not drawn) was over 50 µM.

On to `O=C(NC(NC(=S)Nc1ccc(Cl)cc1Cl)C(Cl)(Cl)Cl)c1ccccc1` (stereo not drawn), for which the EC50 in experiment [1] worked out at 9.1 µM. For the compound `Cc1ccccc1N=C(S)NC(NC(=O)CF)C(Cl)(Cl)Cl` (stereo not drawn), in experiment [1], the EC50 is over 100 µM. The same measure, in the same setting: the value for `O=C(CF)NC(NC(=S)Nc1ccccc1Cl)C(Cl)(Cl)Cl` (stereo not drawn) was over 50 µM; that for `COC(=O)c1ccc(NC(=S)NC(NC(=O)c2cccc3ccccc23)C(Cl)(Cl)Cl)cc1` (stereo not drawn) was 7.3 µM.

Consider `CC(=O)NC(NC(=S)Nc1c(Cl)cc(Cl)cc1Cl)C(Cl)(Cl)Cl` (stereo not drawn), for which, in [1], the EC50 is 24 µM. `CCOC(=O)c1cnn(-c2ccccc2)c1NC(=O)c1cc2nc(-c3ccco3)cc(C(F)(F)Cl)n2n1`: in [10], the EC50 came to 0.25 µM. Take `COC(=O)c1ccccc1NC(=S)NC(NC(=O)c1ccc(C)cc1)C(Cl)(Cl)Cl` (stereo not drawn): the EC50 in [1] turned out to be 23.1 µM. Turning to `O=C(/C=C/c1ccccc1)NC(NC(=S)Nc1cccc2ccccc12)C(Cl)(Cl)Cl` (stereo not drawn), the EC50 in experiment [1] was 3.4 µM.

As for `Cc1ccc(NC(=S)NC(NC(=O)Cc2ccccc2)C(Cl)(Cl)Cl)cc1` (stereo not drawn), the EC50 in [1] was over 50 µM.
